Data from paper PMC7217877, “N-AS-triggered SPMs are direct regulators of microglia in a model of Alzheimer’s disease” (Nature Communications, 2020).
Where “and” joins values, the source holds several entries; their conditions need not be identical. Equal values may be shown once. Read-outs that look alike come from different tables or passages of the source.

Assays:
single-dose plasma PK = type: in vivo, C57BL/6 mice; conditions: mouse; for AUC(0-inf): read-out: AUCinf (Plasma); for AUC(0-t): read-out: AUClast (Plasma)
Procedure: C57BL/6 mice were administered N-AS (Sigma-Aldrich, 01912) at doses of 1 mg kg^−1 (i.v.) or 10 mg kg^−1 (p.o.). Venous blood samples were collected at 5, 15, and 30 min, and 1, 2, 4, 8, and 24 h postdose. A 30 μl of plasma was separated from whole blood by centrifugation and stored at −80 °C until analysis. Also, brain samples were collected at 1, 2, 4, and 24 h postdose and heart, liver, and kidney samples were collected at 24 h postdose, thoroughly rinsed with physiological saline and weighed. Twenty percentage of tissue homogenates were prepared by homogenizing the tissue samples with four volumes of saline. A 30 μl aliquot of plasma or a 50 μl aliquot of tissue homogenates were deproteinized by addition of 200 μl cold methanol (containing naringenin as internal standard at 20 ng ml^−1) and centrifuged at 15,974×g for 10 min. A 10 μl aliquot of the supernatant was injected into Agilent 6470 LC-MS/MS system. Separation was performed on a Synergy Polar RP column (4 μm particle size, 2.0 mm ×150 mm, Phenomenex) using a mobile phase that consisted of methanol and water (85:15, v/v) with 0.1% formic acid at a flow rate of 0.2 ml min^−1. Quantification was carried out using multiple reaction monitoring (MRM) at m/z 340.3→263.3 for N-AS and m/z 271.1→151.3 for naringenin (internal standard) in negative ionization mode and collision energy of 20 eV. p, and relative oral BA values were calculated as follows: BA% = AUCp.o. normalized by p.o. dose/AUCi.v. normalized by i.v. dose × 100.

APP/PS1 mice = assay: Caspase-3+ cells, apoptosis (Supplementary Fig 7o); type: in vivo, mouse
Procedure: Thioflavin S (Sigma-Aldrich) staining was carried out according to previously described procedures. We used 6E10 (mouse, 1:100, Signet, SIG39300), anti-20G10 (mouse, 1:1000, provided by D. R. Howlett, GlaxoSmithKline, Harlow, Essex, UK) for Aβ42, anti-G30 (rabbit, 1:1000, provided by D. R. Howlett) for Aβ40, SMA (mouse, 1:400, Sigma-Aldrich, A2547), AT8 (mouse, 1:500, Thermo Fisher Scientific, MN1020), Caspase-3 (mouse, 1:200, Novus Biologicals, NB100-56708), ac-S565 (rabbit, 1:100), COX2 (mouse, 1:250, Thermo Fisher Scientific, 35-8200), Iba1 (rabbit, 1:500, Wako, 019-19941 and goat, Abcam, ab5076), NeuN (mouse, 1:500, Millipore, MAB177), GFAP (rabbit, 1:500, Dako, N1506 and chicken, 1:500, Abcam, ab4674), and Lamp1 (mouse, 1:200, Abcam, ab24170). The sections were analyzed with a laser-scanning confocal microscope (FV3000; Olympus) or with a BX51 microscope (Olympus). MetaMorph software (Molecular Devices) was used to quantification. Three-dimensional reconstruction of microglia was recorded and analyzed using IMARIS software (Bitplane)[11]. For the analysis of age-dependent microglial COX2^+ CX3CR1^+ cells in WT and APP/PS1 mice, COX2 (rabbit, 1:100, Abcam, ab15191) and CX3CR1 (mouse, 1:100, BioLegend, 149008) antibody were used and the images were acquired on Alexa 488 and APC Channel with performed using Operetta CLS and Analysis Software 4.5 (Perkin-Elmer). […]

[1] = C57BL/6, plasma, iv, i.v. 1 mg/kg
[2] = C57BL/6, plasma, po, p.o. 10 mg/kg

CCCCCCCCCCCCC/C=C/[C@@H](O)[C@H](CO)NC(C)=O [N-AS, N-((2S,3R,E)-1,3-Dihydroxyoctadec-4-en-2-yl)acetamide]
MRT (single-dose plasma PK; [1]): 2.27 ± 0.11 h
half-life (single-dose plasma PK; [1]): 3.45 ± 0.16 h
AUC(0-inf) (single-dose plasma PK; [1]): 667 ± 28.8 ng·h/mL
AUC(0-t) (single-dose plasma PK; [1]): 665 ± 28.6 ng·h/mL
bioavailability (single-dose plasma PK; C57BL/6, plasma, oral, p.o. 10 mg/kg vs i.v. 1 mg/kg, read-out: BA (Bioavailability)): 8.25%
Cmax (single-dose plasma PK; [2]): 683 ± 141 ng/mL
MRT (single-dose plasma PK; [2]): 3.1 ± 0.14 h
Tmax (single-dose plasma PK; [2]): 0.25 h
half-life (single-dose plasma PK; [2]): 3.68 ± 0.14 h
AUC(0-inf) (single-dose plasma PK; [2]): 550 ± 71.3 ng·h/mL
AUC(0-t) (single-dose plasma PK; [2]): 545 ± 72.1 ng·h/mL
Co (Plasma) (single-dose plasma PK; i.v. 1 mg/kg): 854.36 ± 128.60 ng/mL
bioavailability (BA), in words (single-dose plasma PK; p.o.): low
Caspase-3+ cells (APP/PS1 mice; APP/PS1 + N-AS, sFig 7o): 0.7653 and 0.8763 and 0.6283 and 0.6646 and 0.8616 and 0.8325
apoptosis (Caspase-3+ cells) (APP/PS1 mice; N-AS vs vehicle APP/PS1): apoptosis was not changed
